Results from publication PMC4528135, “Kinetic Investigations of the Role of Factor Inhibiting Hypoxia-inducible Factor (FIH) as an Oxygen Sensor” (The Journal of Biological Chemistry, 2015).
Where “and” joins values, the source holds several entries; their conditions need not be identical. Identical values can stand only once. Like-named read-outs stand apart in the source and are kept apart here.

Key:
Type in all cases: biochemical
FIH [1] = molecular target: T1, FIH (Homo sapiens, UniProt Q9NWT6); experiment: Stopped-flow UV-visible spectroscopy, FIH·Fe(II)·2OG·substrate + O2; details: anaerobic 0.5 mM FIH, 1 mM substrate, 5 mM 2OG, 0.4 mM Fe(II), 50 mM HEPES pH 7.5, mixed 1:1 with O2-saturated buffer at 5 °C; double exponential fit
T1 construct: Full-length recombinant FIH, two- and three-consensus ankyrin repeats (2CA and 3CA) were produced as described; His6 (cleaved yes); made in house; host or cells: Escherichia coli BL21(DE3)
Experimental: (§1) Stopped-flow UV-visible spectroscopy experiments were performed as described previously ([32], [42]). Anerobically prepared assay mixtures containing 0.5 mM apo-FIH, 1 mM substrate, 5 mM 2OG, 0.4 mM Fe(II) or 0.8 mM apo-PHD2, 1 mM substrate, 5 mM 2OG, 0.5 mM Fe(II) were rapidly mixed with O2-free/O2-saturated buffer. The reaction was observed over 1000 s using a photodiode array detector, and kinetic traces were analyzed using Origin version 8.51 software. Data were fitted with a double exponential function (y = A1 × exp(−kriset) + A2 × exp(−kfallt) + y0). The A1, A2, and y0 parameters were restricted with upper limits to match the observed amplitude/offset changes.
Kinetic traces were fitted using a double exponential function; the fitting parameters of intermediate formation and decay are summarized in Table 3.
FIGURE 10. Stopped-flow UV-visible absorbance changes upon FIH-catalyzed hydroxylation of HIF-1/2α CAD and ARD substrates. Reaction mixtures containing anaerobic 0.5 mM apo-FIH, 0.4 mM Fe(II), 5 mM 2OG, and 1 mM peptide in HEPES 50 mM (pH 7.5) were rapidly mixed with O2-saturated buffer at 5 °C in 1:1 ratio and analyzed using a photodiode array detector. The data were fitted with a double exponential function. A, decay at 500 nm (representing enzyme·substrate complex depletion) observed upon FIH-catalyzed hydroxylation of ARD substrates compared with HIF-1/2α CAD. B, formation and degradation of 310 nm species observed upon FIH-catalyzed HIF-1/2α CAD and ARD hydroxylation. C, decay at 500 nm observed upon FIH-catalyzed hydroxylation of 1CA, 2CA, and 3CA substrates.

FIH [2] = molecular target: T1, FIH; experiment: Steady-state kinetics of FIH-catalyzed peptide/protein hydroxylation (MALDI-TOF-MS or LC-MS); details: for Km / kcat^app: 50 μM Fe(II), 1 mM L-ascorbate; for kcat^app: MALDI-TOF-MS or LC-MS; for 2OG concentration above which substrate inhibition was observed: FIH steady-state assays with the named CAD peptide
Experimental: Enzymatic assays were conducted as described ([46], [47]). Unless otherwise stated, the assay mixture typically contained 5 μM FIH, 500 μM substrate, 500 μM 2OG, 1 mM L-ascorbate, and 50 μM Fe(NH4)2(SO4)2 or 4 μM PHD2, 100 μM substrate, 300 μM 2OG, 4 mM L-ascorbate, and 50 μM Fe(NH4)2(SO4)2. For HIF-1α CODD19-mer, the background levels of methionine oxidation resulting from assay conditions were subtracted based on non-enzymatic controls ([48]).
The O2 dependence of FIH-catalyzed reactions was determined by conducting enzymatic assays in an “In vivo 500 Hypoxia Workstation” (Ruskinn) using buffers pre-equilibrated under different pO2 values for 24 h. The O2 dependence of PHD2-catalyzed reactions was determined by conducting enzymatic assays in sealed glass vials with variable N2/O2 contents ([42]). Reactions were stopped by spotting samples onto a matrix-assisted laser desorption/ionization-time of flight mass spectrometry (MALDI-TOF-MS) target plate and immediately mixing with α-cyano-4-hydroxycinnamic acid matrix. Hydroxylation levels were assessed by MALDI-TOF-MS as described ([46]).
Samples obtained from FIH kinetic assays with 2CA and 3CA were diluted to a substrate concentration of 5 μM and then analyzed using a Waters® LCT Classic mass spectrometer by electrospray ionization in positive ion mode. An Agilent HP1100 LC system was used, and samples were run through a Phenomenex® Aeris Widepore 3.6-μm XB-C8 150 × 2.1-mm column at 0.5 ml/min in a gradient of phase A (95% H2O, 5% CH3CN, 0.01% formic acid) to phase B (95% CH3CN, 5% H2O, 0.01% formic acid). The LC/MS used the following method: 0–1.5 min, 100% A and then 1.5–12 min linear gradient from 0 to 100% B, 12–14 min 100% B, and 15.0–19.0 min 100% A for re-equilibration of the column. Data were collected and analyzed using MassLynx version 4.0.

PHD2 = molecular target: T2, PHD2 (Homo sapiens, UniProt Q9GZT9); experiment: Stopped-flow UV-visible spectroscopy, PHD2·Fe(II)·2OG·substrate + O2; details: anaerobic 0.8 mM PHD2, 1 mM peptide, 5 mM 2OG, 50 mM HEPES pH 7.5, mixed 1:1 with O2-saturated buffer at 5 °C, double exponential fit; for Stopped-flow, 520 nm (PHD2) kfall phase: traces average of triplicate
T2 construct: The catalytic domain of PHD2 (residues 181–426) was purified as described; made in house
Experimental: as §1, with “Anerobically prepared assay mixtures containing 0.5 mM apo-FIH, 1 mM substrate, 5 mM 2OG, 0.4 mM Fe(II) or 0.8 mM apo-PHD2, 1 mM substrate, 5 mM 2OG, 0.5 mM Fe(II) were rapidly mixed with O2-free/O2-saturated buffer.” left out
Previously reported pre-steady-state kinetic studies on PHD2 focused on its reaction with CODD HIF-1α 19-mer peptide ([38], [42]); there is no reported information on the rates of PHD2 reaction with O2 in the presence of NODD HIF-1α or HIF-2α substrates. To ascertain whether a slow reaction with O2 under pre-steady-state conditions is common to PHD2-catalyzed hydroxylation of both CODD and NODD, we investigated the reaction of PHD2 with NODD substrates in comparison with CODD for both HIF-1α and HIF-2α. Pre-steady-state reactions of PHD2 were initiated by rapid mixing of anaerobic PHD2·Fe(II)·2OG·HIF-α complexes with O2-saturated buffer at 5 °C. Reactions were initially observed using a photodiode array detector, and difference spectra (in comparison with the reaction with O2-free buffer) were subsequently analyzed.
FIGURE 5. Pre-steady-state kinetics of PHD2-catalyzed HIF-1/2α hydroxylation. […] B, stopped-flow kinetic traces at 520 nm showing absorbance changes in control experiments: Fe(II) only, mix of Fe(II) and 2OG, reaction of PHD2·Fe(II)·2OG complex with O2 in the absence of CODD; reaction of PHD2·Fe(II)·N-oxalylglycine (NOG)·CODD complex with O2. N-Oxalylglycine is an inhibitor of 2OG oxygenases. […] The kinetic traces represent the average of triplicate assays. E, HIF-1/2α peptide hydroxylation, as determined by MALDI-TOF-MS. Reactions were quenched with 1% CF3CO2H at defined time points.

[3] = FIH with the named substrate, 0.1–5 μM FIH, 2OG varied, 50 mM HEPES pH 7.5, 37 °C, MALDI-TOF-MS (LC-MS for 2CA, 3CA), triplicate assays, read-out: Km^app(2OG)
[4] = FIH, 0.1–5 μM FIH, substrate varied, 2OG fixed, 50 mM HEPES pH 7.5, 37 °C, MALDI-TOF-MS (LC-MS for 2CA, 3CA), triplicate assays, read-out: Km^app(peptide)

T1 sequence (Q9NWT6 whole entry): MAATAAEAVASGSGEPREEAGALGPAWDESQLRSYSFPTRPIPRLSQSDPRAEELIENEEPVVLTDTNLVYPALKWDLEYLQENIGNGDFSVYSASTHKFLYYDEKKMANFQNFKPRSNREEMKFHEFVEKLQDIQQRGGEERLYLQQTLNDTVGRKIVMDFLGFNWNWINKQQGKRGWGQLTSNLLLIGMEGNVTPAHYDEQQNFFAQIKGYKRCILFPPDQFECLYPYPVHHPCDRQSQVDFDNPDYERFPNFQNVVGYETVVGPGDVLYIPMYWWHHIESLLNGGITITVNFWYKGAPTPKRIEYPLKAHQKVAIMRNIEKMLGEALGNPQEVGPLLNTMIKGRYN
T2 sequence (Q9GZT9 181-426): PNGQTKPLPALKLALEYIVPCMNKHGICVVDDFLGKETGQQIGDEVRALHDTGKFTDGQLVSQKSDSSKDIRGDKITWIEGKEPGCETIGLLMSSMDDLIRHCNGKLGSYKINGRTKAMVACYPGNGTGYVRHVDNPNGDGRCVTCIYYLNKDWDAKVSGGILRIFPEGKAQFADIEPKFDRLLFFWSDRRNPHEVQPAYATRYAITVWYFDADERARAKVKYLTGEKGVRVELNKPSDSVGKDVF

| Sequence | Stopped-flow, 500 nm (FIH) kfall phase (FIH [1]) [s⁻¹] | Stopped-flow, 500 nm (FIH) krise phase (FIH [1]) | Km (FIH [2]; [3]) [µM] | kcat^app (FIH [2]; FIH, 50 mM HEPES pH 7.5, 37 °C) [s⁻¹] | Km (FIH [2]; [4]) [µM] | Km (FIH [2]; 5 μM FIH, peptide 500-1000 µM fixed, 2OG varied, Figure S3B, read-out: Km^app(2OG), fitting with a substrate inhibition model) [µM] | 2OG concentration above which substrate inhibition was observed (FIH [2]) [µM] | Stopped-flow, 520 nm (PHD2) krise phase (PHD2) [s⁻¹] | Stopped-flow, 520 nm (PHD2) kfall phase (PHD2; listed as NODD HIF-2α) | Stopped-flow, 520 nm (PHD2) kfall phase (PHD2) [s⁻¹] |
| --- | --- | --- | --- | --- | --- | --- | --- | --- | --- | --- |
| AAGYNNLEVAEYLLEHGADVNAQDKGGLIPLHNAA [tnkrs-1_35-mer, 35-mer fragment of tankyrase-1, ARD substrate of FIH] | 14.8 ± 0.2 | 0.27 ± 0.03 s⁻¹ | 61 ± 7 | 3.0 ± 0.2 | 14 ± 4 | – | – | – | – | – |
| DESGLPQLTSYDCEVNAPIQGSRNLLQGEELLRAL [HIF-1α CAD35-mer] | 4.5 ± 0.3 | 0.009 ± 0.005 s⁻¹ | 110 ± 20 | 0.56 ± 0.04 | 180 ± 30 | 300 ± 100 | > 100 | – | – | – |
| EELAQLAPTPGDAIISLDF [HIF-2α NODD, 19-mer fragment (398–416) of the HIF-2α N-terminal oxygen-dependent degradation domain, PHD2 substrate] | – | – | – | – | – | – | – | 0.003 ± 0.001 | 0.195 ± 0.003 s⁻¹ and 0.195 ± 0.009 s⁻¹ | – |
| ELDLETLAPYIPMDGEDFQ [HIF-2α CODD, 19-mer fragment (523–541) of the HIF-2α C-terminal oxygen-dependent degradation domain, PHD2 substrate] | – | – | – | – | – | – | – | 0.027 ± 0.001 | – | 0.450 ± 0.010 |
| ESYLLPELTRYDCEVNVPVLGSSTLLQGGDLLRAL [HIF-2α CAD35-mer] | 4.9 ± 0.2 | 0.017 ± 0.01 s⁻¹ | 19 ± 6 | 0.049 ± 0.005 | 315 ± 40 | – | > 700 | – | – | – |
| GSHMGSDLGKKLLEAARAGQDDEVRILMANGADVAAKDKNGSTPLHLAARNGHLEVVKLLLEAGADVNAQDKFGKTAFDISIDNGNEDLAEILQ [3CA, recombinant three-consensus ankyrin repeat protein produced in Escherichia coli] | 10.5 ± 0.1 | 1.7 s⁻¹ and 1.7 ± 0.3 s⁻¹ | 200 ± 60 | 0.6 ± 0.2 | 60 ± 15 | – | – | – | – | – |
| HLEVVKLLLEAGADVNAQDK [1CA20-mer] | 17.6 ± 0.1 | 0.4 ± 0.1 s⁻¹ | 290 ± 50 | 1.6 ± 0.1 | 25 ± 7 | – | – | – | – | – |
| SDKNGSTPLHLAARNGHLEVVKLLLEHGADVNAQDKWGKTAFDISIDNGNEDLAEILQ [2CA, recombinant two-consensus ankyrin repeat protein produced in Escherichia coli] | 11.9 ± 0.2 | 0.6 ± 0.1 s⁻¹ | 110 ± 30 | 1.7 ± 0.2 | 16 ± 3 | – | – | – | – | – |
